Assay results as given in patent US5130120A, “Paramagnetic DTPA and EDTA alkoxyalkylamide complexes as MRI agents” (Mallinckrodt Medical, Inc., priority 1988, dated 1992).

Columns and labels:
ICR mice = assay: acute intravenous toxicity (LD50) in ICR mice, 7-day observation; type: in vivo; settings: for Deaths, Delayed (1-24 hr) / Deaths, Delayed (1-7 days) / Deaths, Immediate (0-1 hr) / Deaths, Total / Body Weight Change: 0.68 M; for Deaths, Total: deaths/animals
Protocol: The acute intravenous toxicity of the compound of Example II was determined as follows: ICR mice, at 1 to 4 per dose level, received single intravenous injections of the test substance via a lateral tail vein at the rate of approximately 1 ml/minute. The test substances were at concentrations chosen to result in dose volumes of 5 to 75 ml/kg body weight. Dosing began at a volume of 10 ml/kg. Dose adjustments up or down were made to closely bracket the estimated LD50 with 4 animals per group (2 males and 2 females). Observations of the mice were recorded at times 0, 0.5, 1,2,4 and 24 hours and once daily thereafter for up to 7 days post injection. On the 7th day post injection, the mice were euthanized, weighed and necropsied. Abnormal tissues were noted. At this time a decision was made as to whether any histopathology was to be performed and whether or not the tissues should be retained. Necropsies were also performed on mice expiring after 24 hours post-injection, except for dead mice found on the weekends. The LD50 values, along with 95% CI were calculated using a modified Behrens-Reed-Meunch method. The results for the complex of Example II are reported below:
Sex and Weight Range of Mice: Males(18.0-20.3 g) Females (19.0-21.7 g).

[1] = T1 and T2 relaxivity, RADX (10 megahertz) NMR analyzer, 37° C.; type: physicochemical
Protocol: T1 and T2 relaxivity curves of the complex of Example II were obtained using a RADX (10 megahertz) NMR analyzer. The RADX analyzer was thermally stabilized at 37° C. before performing any T1 or T2 measurements. Overall range tuning and mid-range calibration were performed on a 37° C. warmed T1 standard at the beginning of the experiment, according to manufacturer's instructions. Subsequent to calibration, T1 standards were tested to verify calibration and linearity.
Ten millimolar solutions of the complex were prepared in sterile water for injection ("SWFI") and in 4% human serum albumin ("HSA")/0.9% NaCl. A series of lower concentrations (0.25, 0.50, 1.0, 2.5 and 5.0 mM) were prepared to form a concentration curve. A sample of each prepared concentration was warmed to 37° C. in an NMR sample tube prior to assay. Triplicate T1 and T2 values were obtained on each dilution.
Separate linear regressions were determined using the reciprocal T1 and T2 mean values for the complex diluted in SWFI and 4% HSA. The relaxivity curves were generated by plotting the reciprocal T1 or T2 value against concentration. The following relaxation rates were determined for the complex of Example II: […]

solubility in water = type: physicochemical; settings: glassy solid
Protocol: A 15% excess of the bis(2-methoxyethylamide) of EDTA produced by the procedure described in Example XI (1.1 g, 0.0026 mol) was dissolved in water (10 ml) and MnCO3 (0.27 g, 0.0023 mol) was added. Upon warming for 30 minutes, the solution became homogeneous. The solution was taken to dryness under reduced pressure.

## COCCNC(=O)CN(CCN(CCN(CC(=O)[O-])CC(=O)NCCOC)CC(=O)[O-])CC(=O)[O-].[Gd+3] [Example II, {N,N"-Bis[N-(2-methoxyethyl)-carbamoylmethyl]diethylenetriamine-N,N',N"-triaceto}gadolinium (III)]
ICR mice; 6.8 mmol/kg i.v., ICR mice
  Deaths, Delayed (1-24 hr): 0
  Deaths, Delayed (1-7 days): 0
  Deaths, Immediate (0-1 hr): 0
  Deaths, Total: 0/2
ICR mice; 6.8 mmol/kg i.v., female ICR mice
  Body Weight Change: +2.1 g
ICR mice; 6.8 mmol/kg i.v., male ICR mice
  Body Weight Change: -1.1 g
ICR mice; 13.6 mmol/kg i.v., ICR mice
  Deaths, Delayed (1-24 hr): 0
  Deaths, Delayed (1-7 days): 0
  Deaths, Immediate (0-1 hr): 0
  Deaths, Total: 0/2
ICR mice; 13.6 mmol/kg i.v., female ICR mice
  Body Weight Change: +1.4 g
ICR mice; 13.6 mmol/kg i.v., male ICR mice
  Body Weight Change: +1.6 g
ICR mice; 20.4 mmol/kg i.v., ICR mice
  Deaths, Delayed (1-24 hr): 0
  Deaths, Delayed (1-7 days): 0
  Deaths, Immediate (0-1 hr): 1
  Deaths, Total: 1/4
ICR mice; 20.4 mmol/kg i.v., female ICR mice
  Body Weight Change: -3.2 g
ICR mice; 20.4 mmol/kg i.v., male ICR mice
  Body Weight Change: -1.1 g
ICR mice; 27.2 mmol/kg i.v., ICR mice
  Deaths, Delayed (1-24 hr): 0
  Deaths, Immediate (0-1 hr): 2
  Deaths, Total: 4/4
ICR mice; 34.0 mmol/kg i.v., ICR mice
  Deaths, Immediate (0-1 hr): 4
  Deaths, Total: 4/4
ICR mice; 7-day post-injection period, i.v., ICR mice
  body weight gain of surviving mice: failed to gain weight
ICR mice; ICR mice, single i.v., 7 days
  95% Confidence Limits of LD50: 17.4 to 29.0 mmol/kg
ICR mice; ICR mice, single i.v., 7 days post injection, modified Behrens-Reed-Meunch method
  LD50: 22.5 mmol/kg
ICR mice; one female dosed with 20.4 mmol/kg i.v.
  gross organ abnormality at necropsy: a "pale" colored liver
ICR mice; other mice at 20.4 mmol/kg or lower, i.v.
  gross organ abnormality at necropsy, other mice: No other mice at 20.4 mmol/kg or lower showed similar abnormalities
ICR mice; preliminary tests, ICR mice
  order of i.v. toxicity: low order of i.v. toxicity
[1]; 4% HSA/0.9% NaCl
  T1 Relaxation Rate: 4400 M⁻¹ s⁻¹
  T2 Relaxation Rate: 6380 M⁻¹ s⁻¹
[1]; H2O (SWFI)
  T1 Relaxation Rate: 4690 M⁻¹ s⁻¹
  T2 Relaxation Rate: 4810 M⁻¹ s⁻¹

## COCCNC(=O)CN(CCN(CC(=O)[O-])CC(=O)NCCOC)CC(=O)[O-].[Mn+2] [Example X, {N,N'-Bis[N-(2-methoxyethyl)carbamoyl-methyl]-ethylenediamine-N,N'-diaceto}manganese(II)]
Solubility in water
  solubility in water: very soluble in water
